IC50 data for 11 compounds are collected here from ChEMBL document CHEMBL3352595, “Anti-inflammatory secoiridoid glycosides from Gentianella azurea” (Bioorg Med Chem Lett, 2014).

This assay concerns RAW264.7. The assay can be described thus: Anti-inflammatory activity in mouse RAW264.7 cells assessed as inhibition of LPS-induced nitric oxide production. It is filed as functional, cell-based.
Consider `C=C[C@H]1[C@H](O[C@@H]2O[C@H](COC(C)=O)[C@@H](O)[C@H](OC(C)=O)[C@H]2OC(C)=O)OC=C2C(=O)OCC[C@H]21`, for which the IC50 is above 200 µM. With `C=C[C@H]1[C@H](O[C@@H]2O[C@H](COC(C)=O)[C@@H](OC(C)=O)[C@H](O)[C@H]2OC(C)=O)OC=C2C(=O)OCC[C@H]21`, the IC50 amounted to 52.8 µM. For `C=C[C@H]1[C@H](O[C@@H]2O[C@H](COC(C)=O)[C@@H](OC(C)=O)[C@H](OC(C)=O)[C@H]2O)OC=C2C(=O)OCC[C@H]21`, the IC50 was above 200 µM. Turning to `C=C[C@H]1[C@H](O[C@@H]2O[C@H](COC(C)=O)[C@@H](O)[C@H](OC(C)=O)[C@H]2OC(=O)c2cccc(O)c2O)OC=C2C(=O)OCC[C@H]21`, the IC50 was above 200 µM.

`C=C[C@H]1[C@H](O[C@@H]2O[C@H](COC(C)=O)[C@@H](OC(C)=O)[C@H](O)[C@H]2OC(=O)c2cccc(O)c2O)OC=C2C(=O)OCC[C@H]21`: the IC50 is 0.69 µM. The figure for `C=C[C@H]1[C@H](O[C@@H]2O[C@H](COC(=O)c3cccc(O)c3O[C@@H]3O[C@H](CO)[C@@H](O)[C@H](O)[C@H]3O)[C@@H](O)[C@H](OC(C)=O)[C@H]2OC(=O)c2cccc(O)c2O)OC=C2C(=O)OCC[C@H]21` is above 200 µM; for `C=C[C@H]1[C@H](O[C@@H]2O[C@H](CO)[C@@H](OC(=O)c3cccc(O)c3O[C@@H]3O[C@H](CO)[C@@H](O)[C@H](O)[C@H]3O)[C@H](O)[C@H]2O)OC=C2C(=O)OCC[C@H]21` it is above 200 µM; for `C=C[C@H]1[C@H](O[C@@H]2O[C@H](COC(=O)c3cccc(O)c3O[C@@H]3O[C@H](CO)[C@@H](O)[C@H](O)[C@H]3O)[C@@H](O)[C@H](O)[C@H]2O)OC=C2C(=O)OCC[C@H]21` it is above 200 µM.

Consider `C=C[C@H]1[C@H](O[C@@H]2O[C@H](CO)[C@@H](O)[C@H](O)[C@H]2OC(=O)/C=C/c2ccc(O)cc2)OC=C2C(=O)OCC[C@]21O`, for which the IC50 is above 200 µM. In the case of `C=C[C@H]1[C@H](O[C@@H]2O[C@H](COC(=O)c3cccc(O)c3O[C@@H]3O[C@H](CO)[C@@H](O)[C@H](O)[C@H]3O)[C@@H](O)[C@H](O)[C@H]2OC(=O)c2cccc(O)c2O)OC=C2C(=O)OCC[C@H]21`, the 50% inhibitory concentration (IC50) is above 200 µM. For `C=C[C@H]1[C@H](O[C@@H]2O[C@H](COC(C)=O)[C@@H](OC(=O)c3cccc(O)c3O[C@@H]3O[C@H](CO)[C@@H](O)[C@H](O)[C@H]3O)[C@H](OC(C)=O)[C@H]2OC(=O)c2cccc(O)c2O)OC=C2C(=O)OCC[C@H]21`, the IC50 is 5.18 µM.

As usually defined, the IC50 is the concentration that inhibits the measured activity by half.
